Assay results taken from US12171776B2, “Methods for treatment and prophylaxis of HIV and AIDS” (Merck Sharp & Dohme LLC, priority 2016, dated 2024).
Like-named read-outs stand apart in the source and are kept apart here.

Key:
[1] = tested on: SIVmac251; experiment: Once-weekly efficacy in an SIV infected rhesus monkey model of HIV-infection; assay type: in vivo; settings: SIV-infected monkeys
Experimental: Once-Weekly Efficacy in an SIV Infected Rhesus Monkey Model of HIV-Infection.
Oral efficacy studies were conducted at New Iberia Research Center (NIRC), Lafayette, Louisiana Following treatment with BAYTRIL® (5 mg/kg, IM, SID) for 5 days, 20 monkeys were inoculated intravenously with SIVmac251. After 3 days, venous blood was collected every 2-5 days (2× per week) for viral load testing and monitored to stable viremia (wherein 3 consecutive samples were within 3-fold of each other following acute viremia peak). Plasma SIV viral RNA levels were determined using a branched DNA technique at Siemens Diagnostics, Berkeley, California.
Following determination of stable viremia, SIV-infected monkeys were randomized by age, weight, and viral load (n=3 per group). A 2-arm adaptive design was employed in which results from Arm 1 informed the doses for Arm 2. In Arm 1, animals received two once-weekly doses of vehicle, 1.3 mg/kg EFdA, or 13 mg/kg EFdA administered via oral gavage. In Arm 2, animals received 3.9 mg/kg or 18.2 mg/kg EFdA once-weekly or 0.19 mg/kg EFdA once daily for two weeks. Blood (4 ml) was drawn for viral load determinations during the treatment period on days −2, 0 (dosing day), 1, 2, 3, 5, 7 (dosing day), 8, 9, 10, 12, and 14, and then two times per week for 3 weeks during the washout period. In addition, blood (1 ml) was drawn on days 0 (2 hrs post dose), 1 (24 hr post dose), 7 (2 hrs post dose), and 8 (24 hrs post dose) for EFdA pharmacokinetic assessment.
SIV RNA for genotyping was isolated from 140 μl plasma using the QIAamp Viral RNA Mini kit (Cat #52904/52906). The reverse transcriptase region of SIVmac251 was reverse transcribed and amplified using SuperScript III RT/Platinum polymerase, primers S251RTF1 ([…] [2732-2751]) and S251RTR1 ([…] [4206-4225]) and 8 μl template RNA in 20 μl reactions. A nested PCR reaction was carried out using 3.5 μl of the product from the first reaction with TaKaRa LA Taq and primers S251RTF2 ([…] [2750-2769]) and S251RTR2 ([…] [4169-4188]) in 50 μl reactions. After verifying size of ˜1.5 kb by gel electrophoresis, PCR products were purified using ExoSAP-IT (Affymetrix; cat #78201) and adjusted to 15 ng/ml. PCR products (10 μl) were mixed with 5 μl 5 μM sequencing primers S251RTS5 ([…] [2760-2779]), s251RTS6 ([…] [3266-3285]), or S251RTS7 ([…] [3755-3774]). DNA sequencing was carried out at Genewiz (115 Corporate Blvd, South Plainfield, NJ 07080).

[2] = Phase I single rising dose pharmacokinetics of oral EFdA suspension in healthy adults; assay type: in vivo, human
Experimental: (§1) Pharmacokinetics of EFdA Following Administration of Oral Doses in Healthy Humans.
(§2) The pharmacokinetics of EFdA were evaluated in Phase I single and multiple rising dose studies. In the single dose study, single oral doses of the oral suspension of EFdA from 5 to 400 mg were administered to three alternating panels of 8 healthy adult subjects. Within each panel, subjects were administered single doses of EFdA (n=6) or matching placebo (n=2) in a blinded fashion in up to 3 treatment periods. Panel A received 15 mg and 200 mg. Panel B received 30 mg, 400 mg, and 30 mg with food. Panel C received 100 mg and 5 mg. In the multiple rising dose study, multiple doses of EFdA oral capsules were administered to three panels of 8 healthy adult subjects. Within each panel, subjects were administered three once weekly doses of EFdA (n=6) or matching placebo (n=2) on Days 1, 8, and 15. Panel A received 10 mg. Panel B received 30 mg, and Panel C received 100 mg.

[3] = tested on: SIV; settings: PBMCs isolated from uninfected monkeys 24 hr after drug administration; Stoddart et al. 2015; cited from earlier work
[4] = tested on: HIV-1
From the text: The single dose monotherapy efficacy of EFDA is currently being evaluated in HIV-1 patients naïve to anti-retroviral treatment.

[5] = Phase I multiple rising dose pharmacokinetics, three once weekly oral doses of EFdA capsules in healthy adults; assay type: in vivo, human; settings: for plasma concentration (below LLQ): 10 mg dose, all subjects; for Cmax / Tmax / half-life / AUC(0-t) / AUC0-168 hr: healthy fasted subjects; for Cmax / half-life / AUC(0-t) / AUC0-168 hr: geometric mean (%GCV); for Cmax accumulation ratio Week 3/Week 1: geometric mean (min, max); for Tmax / half-life / AUC(0-t): human; for Tmax: po, median (min, max); for AUC(0-t): read-out: AUC0-168 hr
Experimental: as §1, §2

[6] = in vitro; lymphoid derived cell lines and peripheral blood mononuclear cells; Stoddart et al. 2015; cited from earlier work
[7] = single 10 mg dose, HIV-1 patients, plasma HIV-1 RNA, N=6
[8] = single 10 mg dose, adjusted by pooled historical placebo
[9] = EFdA in plasma, 30 mg oral once weekly, Week 3
[10] = EFdA in plasma, 100 mg oral once weekly, Week 3
[11] = EFdA-TP in PBMCs, EFdA 10 mg oral once weekly, Week 1
[12] = EFdA-TP in PBMCs, EFdA 30 mg oral once weekly, Week 1
[13] = EFdA-TP in PBMCs, EFdA 30 mg oral once weekly, Week 3
[14] = EFdA-TP in PBMCs, EFdA 100 mg oral once weekly, Week 1
[15] = EFdA-TP in PBMCs, EFdA 100 mg oral once weekly, Week 3
[16] = PBMCs, following multiple doses of 30 mg and 100 mg

C#C[C@]1(CO)O[C@@H](n2cnc3c(N)nc(F)nc32)C[C@@H]1O [EFdA, 4′-Ethynyl-2-fluoro-2′-deoxyadenosine]
VL suppression maintained ([1]; 3.9 mg/kg QW oral, from Day 7 to Day 14): 7 days
VL drop ([1]; 3.9 to 18.2 mg/kg QW oral): close to maximal
VL during the wash-out period ([1]; after cessation of dosing): dose-dependent VL rebound
control of viremia ([1]; once-weekly oral versus once-daily treatment): can control viremia with once-weekly oral administration as well as once-daily treatment
effect of food on intracellular pharmacokinetics ([2]; 30 mg with food, high-fat meal, single dose): largely unaffected by a high-fat meal
plasma exposure versus dose ([2]; EFdA in plasma, between 5 and 400 mg single oral dose): approximately dose-proportional
median Tmax ([2]; EFdA in plasma, single oral doses 5 to 400 mg, healthy adults): 0.5 h
reduction of plasma Cmax in rapid initial phase ([2]; EFdA in plasma, within the first 6-12 hours, single oral dose): approximately 10 fold
half-life ([2]; human, EFdA in plasma, single oral doses 5 to 400 mg, healthy adults, read-out: apparent terminal half-life, slow terminal phase): 50 to 60 h
susceptibility of PBMCs to SIV infection [3]: refractory to SIV infection
Change from Baseline in Viral Load, Max [4, 7]: −1.31 log10 copies/mL
Change from Baseline in Viral Load, Median [4, 7]: −1.63 log10 copies/mL
Change from Baseline in Viral Load, Min [4, 7]: −1.97 log10 copies/mL
Change from Baseline in Viral Load, LS mean (95% CI) ([4]; single 10 mg dose, HIV-1 patients, plasma HIV-1 RNA, N=6, LDA model): −1.67 (−1.87, −1.47) log10 copies/mL
PP = Posterior Probability of true mean difference in plasma HIV-1 RNA reduction from baseline between EFDA and placebo at least 0.5 log10 copies/mL [4, 8]: >99.9%
Placebo Corrected Change from Baseline in Viral Load, Posterior mean [4, 8]: −1.64 log10 copies/mL
mean (95% CI) placebo adjusted VL reduction ([4]; single 10 mg dose, at 168 hours post-dose, HIV-1 patients): 1.67 log 10
recrudescence of viral load ([4]; single 10 mg dose, through Day 10): no evidence of recrudescence
mean VL reduction ([4]; single 10 mg dose, through Day 10, HIV-1 patients): 1.78 log 10
tolerability ([4]; single 10-mg dose, HIV-1 patients, limited number of mild/moderate adverse experiences): generally well tolerated
plasma concentration (below LLQ) ([5]; at 48 hr post-dose and later on week 1): < 3.41 nM
plasma concentration (below LLQ) ([5]; at 96 hr post-dose or later in week 3): < 3.41 nM
Cmax ([5]; EFdA in plasma, 10 mg oral once weekly, Week 1, read-out: Cmax): 193 nM
Cmax ([5]; EFdA in plasma, 10 mg oral once weekly, Week 3, read-out: Cmax): 241 nM
Cmax accumulation ratio Week 3/Week 1 ([5]; EFdA in plasma, 10 mg oral once weekly): 1.25 (0.70, 1.66)
Cmax ([5]; EFdA in plasma, 30 mg oral once weekly, Week 1, read-out: Cmax): 647 nM
Cmax ([5]; EFdA in plasma, 30 mg oral once weekly, Week 3, read-out: Cmax): 637 nM
Cmax accumulation ratio Week 3/Week 1 ([5]; EFdA in plasma, 30 mg oral once weekly): 0.98 (0.73, 1.44)
Cmax ([5]; EFdA in plasma, 100 mg oral once weekly, Week 1, read-out: Cmax): 1470 nM
Cmax ([5]; EFdA in plasma, 100 mg oral once weekly, Week 3, read-out: Cmax): 1850 nM
Cmax accumulation ratio Week 3/Week 1 ([5]; EFdA in plasma, 100 mg oral once weekly): 1.26 (0.26, 3.59)
exposure versus dose ([5]; EFdA in plasma, 10, 30, 100 mg once weekly): generally dose-proportional
Tmax ([5]; plasma, 10 mg, EFdA in plasma, 10 mg oral once weekly, Week 1): 1 h
Tmax ([5]; plasma, 10 mg, EFdA in plasma, 10 mg oral once weekly, Week 3): 1 h
Tmax ([5]; plasma, 30 mg, EFdA in plasma, 30 mg oral once weekly, Week 1): 1 h
Tmax ([5]; plasma, 30 mg, EFdA in plasma, 30 mg oral once weekly, Week 3): 1 h
Tmax ([5]; plasma, 100 mg, EFdA in plasma, 100 mg oral once weekly, Week 1): 2 h
Tmax ([5]; plasma, 100 mg, EFdA in plasma, 100 mg oral once weekly, Week 3): 1 h
half-life [5, 9]: 74.1 h
AUC(0-t) [5, 9]: 3.97 µM·h
half-life [5, 10]: 87.1 h
AUC(0-t) [5, 10]: 12 µM·h
accumulation of EFdA in plasma ([5]; plasma, multiple once weekly doses): little to no accumulation

C#C[C@]1(COP(=O)(O)OP(=O)(O)OP(=O)(O)O)O[C@@H](n2cnc3c(N)nc(F)nc32)C[C@@H]1O [EFdA-TP, 4′-ethynyl-2-fluoro-2′-deoxyadenosine triphosphate]
intracellular half-life [6]: exceeds 72 hrs
exposure versus dose ([5]; EFdA-TP in PBMC, EFdA 10, 30, 100 mg once weekly): generally dose-proportional
AUC0-168 hr [5, 11]: 341 (21.2) hr * pmo1/10^6 cells
Cmax [5, 11]: 3.78 (15.3) pmo1/10^6 cells
AUC0-168 hr [5, 12]: 1160 (41.5) hr * pmo1/10^6 cells
Cmax [5, 12]: 13.2 (51.3) pmo1/10^6 cells
AUC0-168 hr [5, 13]: 1570 (12.3) hr * pmo1/10^6 cells
Cmax [5, 13]: 19.6 (13.7) pmo1/10^6 cells
AUC0-168 hr [5, 14]: 3020 (31.3) hr * pmo1/10^6 cells
Cmax [5, 14]: 27.9 (21.2) pmo1/10^6 cells
AUC0-168 hr [5, 15]: 4580 (17.6) hr * pmo1/10^6 cells
Cmax [5, 15]: 43.0 (16.7) pmo1/10^6 cells
accumulation of EFdA-TP AUC0-168hr and Cmax [5, 16]: modest degree of accumulation
accumulation of EFdA-TP C168hr [5, 16]: little to no accumulation
